In patent US20230391785A1, “NITROGEN-CONTAINING HETEROCYCLIC COMPOUND, METHOD FOR PREPARING SAME AND USE OF SAME” (280 Bio, Inc., priority 2021, published 2023):
Like-named read-outs stand apart in the source and are kept apart here.

Key:
Format in all cases: cell-based
[1] = test system: A375 wild type malignant melanoma cell line; experiment: Proliferation inhibition measured by CTG (CellTiter Glo), A375; conditions: Homo sapiens, A-375
Source text: (§1) NCI-H358 is a human non-small cell lung cancer cell line with KRAS G12C mutation; PANC-1 and AsPC-1 are pancreatic cancer cell lines with KRAS G12D mutation; AGS is a gastric cancer cell line with KRAS G12D mutation; A427 is a lung cancer cell line with KRAS G12D mutation; THP-1 is a leukemia cell line with NRAS G12D mutation; Hs 578T is a breast cancer cell line with HRAS G12D mutation; SW480 is a colon cancer cell lines with KRAS G12V mutation; A375 is a wild type malignant melanoma cell line. The proliferation inhibitory effect of the compounds on various mutations was evaluated by determining the proliferation inhibitory activity of the compounds on these cell lines.
(§2) The assay was conducted on either 384-well plates or 96-well plates. The procedures are as follows:
(§3) The cell suspensions were added to 384- or 96-well plates (384-well plate: 40 μL; 96-well plate: […]) except for peripheral wells. The plates were incubated in a carbon dioxide incubator overnight. Prepared compounds (10 concentration gradients by serial 3-fold dilution) were added to the wells. The cell plates were incubated in a carbon dioxide incubator for 120 hours. CellTiter Glo reagent (384 well plate: 25 μL; 96 well plate: 100 μL) was added to the 384- or 96-well plates. The plates were shaken for 10 minutes away from light, and incubated for 10 minutes. The plates were read by EnVision system. Inhibition curves were plotted using XLFit and IC50 values were calculated. “IC50>10 μM” is denoted by “*”, “10 μM≥IC50>1 μM” is denoted by “**”, “1 μM≥IC50>100 nM” is denoted by “***”, and “IC50≤100 nM” is denoted by “****”.

[2] = test system: NCI-H358 cells (KRAS G12C mutation); experiment: Proliferation inhibition measured by CTG (CellTiter Glo), NCI-H358; conditions: Homo sapiens
Source text: as §1, §2, §3

[3] = test system: AsPC-1 pancreatic cancer cell line (KRAS G12D mutation); experiment: Proliferation inhibition measured by CTG (CellTiter Glo), AsPC-1; conditions: Homo sapiens, ASPC1
Source text: as §1, §2, §3

[4] = test system: AGS gastric cancer cell line (KRAS G12D mutation); experiment: Proliferation inhibition measured by CTG (CellTiter Glo), AGS; conditions: CTG, 120 hours incubation
Source text: as §1, §2, §3

[5] = test system: Hs 578T breast cancer cell line (HRAS G12D mutation); experiment: Proliferation inhibition measured by CTG (CellTiter Glo), Hs 578T; conditions: Homo sapiens, Table 1, CTG, 120 hours incubation, class symbol
Source text: as §1, §2, §3

[6] = test system: THP-1 leukemia cell line (NRAS G12D mutation); experiment: Proliferation inhibition measured by CTG (CellTiter Glo), THP-1; conditions: Homo sapiens, Table 1, CTG, 120 hours incubation, class symbol
Source text: as §1, §2, §3

[7] = test system: SW480 colon cancer cell line (KRAS G12V mutation); experiment: Proliferation inhibition measured by CTG (CellTiter Glo), SW480; conditions: Homo sapiens, Table 3, 120 hours incubation, class symbol, read-out: IC50 (SW480)
Source text: as §1, §2, §3

[8] = Table 1, CTG, 120 hours incubation, class symbol, read-out: IC50 (A375)
[9] = Table 1, CTG, 120 hours incubation, class symbol, read-out: IC50 (H358)
[10] = Table 1, CTG, 120 hours incubation, class symbol
[11] = Table 1, class symbol, read-out: IC50 (AGS)
[12] = Table 3, CTG, 120 hours incubation, class symbol, read-out: IC50 (A375)
[13] = Table 3, CTG, 120 hours incubation, class symbol, read-out: IC50 (H358)
[14] = Table 3, class symbol, read-out: IC50 (AGS)

| SMILES | IC50 [1, 8] | IC50 [2, 9] | IC50 [3, 10] | IC50 [1, 12] | IC50 [2, 13] | IC50 [4, 14] | IC50 [7] | other results |
| --- | --- | --- | --- | --- | --- | --- | --- | --- |
| CN1CCC[C@H]1COc1nc2c(c(N3CCc4cnoc4C3)n1)CCN(c1cccc3cccc(Cl)c13)C2 [Comparative compound 1′, reference compound] | > 10 µM | > 10 µM | > 10 µM |  |  |  |  | IC50 ([1]; Table 1, number in parentheses, unit not given in Table 1 (Table 2 gives the same value in μM), read-out: IC50 (A375)): 22.7 µM; IC50 ([2]; Table 1, number in parentheses, no unit printed in Table 1 (Table 2 gives the same values of compound 2 in μM), read-out: IC50 (H358)): 17.2 µM; IC50 ([3]; Table 1, number in parentheses, unit not given in Table 1 (legend and Table 2 use μM)): 39.7 µM |
| CN1CCC[C@H]1COc1nc2c(c(N3CCn4cncc4C3)n1)CO[C@H](c1cccc3cccc(Cl)c13)C2 [Compound 3] | 1 to 10 µM | 0.1 to 1 µM | 1 to 10 µM |  |  |  |  |  |
| Cc1ncc2n1CCN(c1nc(OC[C@@H]3CCCN3C)nc3c1CCN(c1cccc4cccc(Cl)c14)C3)C2 [Compound 5] | 1 to 10 µM | 1 to 10 µM | 1 to 10 µM |  |  |  |  |  |
| CN1CCC[C@@H]1COc1nc2c(c(N3CCn4cncc4C3)n1)CCN(c1cccc3cccc(Cl)c13)C2 [Compound 18] | 0.1 to 1 µM | ≤ 0.1 µM | 0.1 to 1 µM |  |  |  |  | IC50 [4, 11]: ≤ 0.1 µM; IC50 [5]: 0.1 to 1 µM; IC50 [6]: 0.1 to 1 µM |
| CN1CCC(Oc2nc3c(c(N4CCn5cncc5C4)n2)CCN(c2cccc4cccc(Cl)c24)C3)CC1 [Compound 20] | 1 to 10 µM | 0.1 to 1 µM | 1 to 10 µM |  |  |  |  | IC50 [4, 11]: 0.1 to 1 µM; IC50 [5]: 1 to 10 µM; IC50 [6]: 0.1 to 1 µM |
| CN(C)CCCOc1nc2c(c(N3CCn4cncc4C3)n1)CCN(c1cccc3cccc(Cl)c13)C2 [Compound 21] | 0.1 to 1 µM | ≤ 0.1 µM | 0.1 to 1 µM |  |  |  |  | IC50 [4, 11]: ≤ 0.1 µM; IC50 [5]: 0.1 to 1 µM; IC50 [6]: 0.1 to 1 µM |
| CC1Cn2cncc2CN1c1nc(OC[C@@H]2CCCN2C)nc2c1CCN(c1cccc3cccc(Cl)c13)C2 (stereo partly drawn) [Compound 22] | ≤ 0.1 µM | ≤ 0.1 µM | ≤ 0.1 µM |  |  |  |  | IC50 ([1]; Table 2, CTG, 120 hours incubation, read-out: IC50 A375 (wide type)): 0.096 µM; IC50 ([2]; Table 2, CTG, 120 hours incubation, read-out: IC50 H358 (G12C)): 0.073 µM; IC50 [4, 11]: ≤ 0.1 µM; IC50 ([4]; Table 2, read-out: IC50 AGS (G12D)): 0.054 µM; IC50 [5]: 0.1 to 1 µM; IC50 [6]: ≤ 0.1 µM |
| COC1CN(c2nc(OC[C@@H]3CCCN3C)nc3c2CCN(c2cccc4cccc(Cl)c24)C3)Cc2cncn21 (stereo partly drawn) [Compound 23] | 0.1 to 1 µM | 0.1 to 1 µM | 0.1 to 1 µM |  |  |  |  | IC50 [4, 11]: 0.1 to 1 µM; IC50 [5]: 1 to 10 µM; IC50 [6]: 0.1 to 1 µM |
| Clc1cccc2cccc(N3CCc4c(nc(OCC56CCCN5CCC6)nc4N4CCn5cncc5C4)C3)c12 [Compound 24] | 0.1 to 1 µM | 0.1 to 1 µM | 1 to 10 µM |  |  |  |  | IC50 [4, 11]: 1 to 10 µM; IC50 [5]: > 10 µM; IC50 [6]: 0.1 to 1 µM |
| CN1CCO[C@H](COc2nc3c(c(N4CCn5cncc5C4)n2)CCN(c2cccc4cccc(Cl)c24)C3)C1 [Compound 27] | 1 to 10 µM | 0.1 to 1 µM | 0.1 to 1 µM |  |  |  |  | IC50 [4, 11]: 0.1 to 1 µM; IC50 [5]: 1 to 10 µM; IC50 [6]: 0.1 to 1 µM |
| CN1CC[C@@H](COc2nc3c(c(N4CCn5cncc5C4)n2)CCN(c2cccc4cccc(Cl)c24)C3)C1 [Compound 28] | 0.1 to 1 µM | 0.1 to 1 µM | 0.1 to 1 µM |  |  |  |  | IC50 [4, 11]: 0.1 to 1 µM; IC50 [5]: 1 to 10 µM; IC50 [6]: 0.1 to 1 µM |
| CNC(=O)Oc1cc(N2CCc3c(nc(OC[C@@H]4CCCN4C)nc3N3Cc4c(F)ncn4C[C@H]3C)C2)c2c(Cl)cccc2c1 [Compound 98] |  |  |  | ≤ 0.1 µM | ≤ 0.1 µM | ≤ 0.1 µM | ≤ 0.1 µM |  |
| C[C@@H]1Cn2cnc(F)c2CN1c1nc(OC[C@@H]2CCCCN2C)nc2c1CCN(c1cccc3cccc(Cl)c13)C2 [Compound 99] |  |  |  | ≤ 0.1 µM | ≤ 0.1 µM | ≤ 0.1 µM | ≤ 0.1 µM |  |
| CC(C)[C@@H](N)C(=O)Oc1cc(N2CCc3c(nc(OC[C@@H]4CCCN4C)nc3N3Cc4c(F)ncn4C[C@H]3C)C2)c2c(Cl)cccc2c1 [Compound 101] |  |  |  | ≤ 0.1 µM | ≤ 0.1 µM | ≤ 0.1 µM | ≤ 0.1 µM |  |
| Cc1cccc(N)c1C(=O)Oc1cc(N2CCc3c(nc(OC[C@@H]4CCCN4C)nc3N3Cc4c(F)ncn4C[C@H]3C)C2)c2c(Cl)cccc2c1 [Compound 102] |  |  |  | ≤ 0.1 µM | ≤ 0.1 µM | ≤ 0.1 µM | ≤ 0.1 µM |  |
| CCc1ccc(NC(=O)Oc2cc(N3CCc4c(nc(OC[C@@H]5CCCN5C)nc4N4Cc5c(F)ncn5C[C@H]4C)C3)c3c(Cl)cccc3c2)cc1 [Compound 103] |  |  |  | ≤ 0.1 µM | ≤ 0.1 µM | ≤ 0.1 µM | ≤ 0.1 µM |  |
| C[C@@H]1Cn2cnc(F)c2CN1c1nc(OC[C@@H]2CCCN2C)nc2c1CO[C@H](c1cccc3cccc(Cl)c13)C2 [Compound 104] |  |  |  | 0.1 to 1 µM | 0.1 to 1 µM | 0.1 to 1 µM | 0.1 to 1 µM |  |
| C[C@@H]1Cn2cnc(F)c2CN1c1nc(OC[C@@H]2CCCN2C)nc2c1CCN(c1cc(O)c(Cl)c3cccc(Cl)c13)C2 [Compound 105] |  |  |  | ≤ 0.1 µM | ≤ 0.1 µM | ≤ 0.1 µM | ≤ 0.1 µM |  |
| C[C@@H]1Cn2cnc(F)c2CN1c1nc(OC[C@@H]2CCCN2C)nc2c1CCN(c1cccc3cccc(F)c13)C2 [Compound 106] |  |  |  | ≤ 0.1 µM | ≤ 0.1 µM | ≤ 0.1 µM | ≤ 0.1 µM |  |
| CC[C@@H]1Cn2cncc2CN1c1nc(OC[C@@H]2CCCN2C)nc2c1CCN(c1cccc3cccc(Cl)c13)C2 [Compound 107] |  |  |  | ≤ 0.1 µM | ≤ 0.1 µM | ≤ 0.1 µM | ≤ 0.1 µM |  |
| C#Cc1c(F)ccc2cc(O)cc(N3CCc4c(nc(OC[C@@H]5CCCN5C)nc4N4Cc5c(F)ncn5C[C@H]4C)C3)c12 [Compound 108] |  |  |  | 0.1 to 1 µM | 0.1 to 1 µM | ≤ 0.1 µM | ≤ 0.1 µM |  |
| C[C@@H]1Cn2cnc(F)c2CN1c1nc(OC[C@@H]2CCCN2C)nc2c1CCN(c1cc(NC(=O)OC(C)(C)C)cc3cccc(Cl)c13)C2 [Compound 109] |  |  |  | 1 to 10 µM | 1 to 10 µM | 0.1 to 1 µM | 0.1 to 1 µM |  |
| C[C@@H]1Cn2cnc(F)c2CN1c1nc(OC[C@@H]2CCCN2C)nc2c1CCN(c1cc(N)cc3cccc(Cl)c13)C2 [Compound 110] |  |  |  | ≤ 0.1 µM | ≤ 0.1 µM | ≤ 0.1 µM | ≤ 0.1 µM |  |
| CC(=O)Nc1cc(N2CCc3c(nc(OC[C@@H]4CCCN4C)nc3N3Cc4c(F)ncn4C[C@H]3C)C2)c2c(Cl)cccc2c1 [Compound 111] |  |  |  | 1 to 10 µM | 1 to 10 µM | 1 to 10 µM | 0.1 to 1 µM |  |
| C[C@@H]1Cn2cnc(F)c2CN1c1nc(OC[C@@H]2CCCN2C)nc2c1CCN(c1cc(NS(C)(=O)=O)cc3cccc(Cl)c13)C2 [Compound 112] |  |  |  | 1 to 10 µM | 1 to 10 µM | 0.1 to 1 µM | 0.1 to 1 µM |  |
| C[C@@H]1Cn2cnc(F)c2CN1c1nc(OC[C@@H]2CCCCN2C)nc2c1CCN(c1cccc3cccc(F)c13)C2 [Compound 113] |  |  |  | ≤ 0.1 µM | ≤ 0.1 µM | ≤ 0.1 µM | ≤ 0.1 µM |  |
| C[C@@H]1Cn2cnc(F)c2CN1c1nc(OC[C@@H]2CCCCN2C)nc2c1CCN(c1cc(F)cc3cccc(Cl)c13)C2 [Compound 115] |  |  |  | ≤ 0.1 µM | ≤ 0.1 µM | ≤ 0.1 µM | ≤ 0.1 µM |  |
| C[C@@H]1Cn2cnc(F)c2CN1c1nc(OC[C@@H]2CCCN2C)nc2c1CCN(c1cc(F)cc3cccc(Cl)c13)C2 [Compound 117] |  |  |  | ≤ 0.1 µM | ≤ 0.1 µM | ≤ 0.1 µM | ≤ 0.1 µM |  |
| CC1Cc2[nH]ncc2CN1c1nc(OC[C@@H]2CCCN2C)nc2c1CCN(c1cccc3cccc(Cl)c13)C2 (stereo partly drawn) [Compound 118] |  |  |  | 0.1 to 1 µM | 0.1 to 1 µM | ≤ 0.1 µM | ≤ 0.1 µM |  |
